# Source: paper PMC5218480 (PLoS ONE, 2017)
# System: MV-4-11 cells
# Assay: Gene expression microarray analysis (Affymetrix PrimeView) and GSEA
# Format: cell-based, human
# Design: RFU PODN (11730768_x_at) / Fold change /veh PODN (11730768_x_at) / RFU LINC00158 (11744669_a_at) / Fold change /veh LINC00158 (11744669_a_at) / RFU DUSP10 (11751237_a_at) / Fold change /veh DUSP10 (11751237_a_at) / RFU ID3 (11757404_x_at) / Fold change /veh ID3 (11757404_x_at) / RFU PLEKHG5 (11737974_s_at) / Fold change /veh PLEKHG5 (11737974_s_at) / RFU LRRC4B (11730491_at) / Fold change /veh LRRC4B (11730491_at) / RFU GIMAP4 (11747438_a_at) / Fold change /veh GIMAP4 (11747438_a_at) / RFU KRT8 (11758183_x_at) / Fold change /veh KRT8 (11758183_x_at) / RFU CNN1 (11734310_a_at) / Fold change /veh CNN1 (11734310_a_at) / RFU VPS37D (11726825_at) / Fold change /veh VPS37D (11726825_at) / RFU C10orf10 (11716522_x_at) / Fold change /veh C10orf10 (11716522_x_at) / RFU KIR2DL2 /// KIR2DL4 /// KIR2DL5A /// KIR2DL5B /// KIR2DS1 /// KIR2DS2 /// KIR2DS3 /// KIR2DS4 /// KIR3DL3 /// KIR3DL3 /// KIR3DS1 (11738374_at) / Fold change /veh KIR2DL2 /// KIR2DL4 /// KIR2DL5A /// KIR2DL5B /// KIR2DS1 /// KIR2DS2 /// KIR2DS3 /// KIR2DS4 /// KIR3DL3 /// KIR3DL3 /// KIR3DS1 (11738374_at) / RFU C1QL1 (11718748_at) / Fold change /veh C1QL1 (11718748_at) / RFU TMPRSS4 (11747572_a_at) / Fold change /veh TMPRSS4 (11747572_a_at) / RFU HAMP (11756126_x_at) / Fold change /veh HAMP (11756126_x_at) / RFU RNFT2 (11725882_a_at) / Fold change /veh RNFT2 (11725882_a_at) / RFU NR4A2 (11747474_a_at) / Fold change /veh NR4A2 (11747474_a_at) / RFU ABCC12 (11746883_a_at) / Fold change /veh ABCC12 (11746883_a_at) / RFU TMEM136 (11760407_x_at) / Fold change /veh TMEM136 (11760407_x_at) / RFU CLDN22 /// WWC2 (11732394_at) / Fold change /veh CLDN22 /// WWC2 (11732394_at) / RFU HLA-DPB1 (11760878_x_at) / Fold change /veh HLA-DPB1 (11760878_x_at) / RFU SPINT1 (11716480_a_at) / Fold change /veh SPINT1 (11716480_a_at) / RFU GAP43 (11754022_s_at) / Fold change /veh GAP43 (11754022_s_at) / RFU A4GNT (11735810_at) / Fold change /veh A4GNT (11735810_at) / RFU PRB3 (11715151_x_at) / Fold change /veh PRB3 (11715151_x_at) / RFU TUBB4B (11761932_at) / Fold change /veh TUBB4B (11761932_at) / RFU CAPN14 (11732068_a_at) / Fold change /veh CAPN14 (11732068_a_at) / RFU TMCC2 (11721928_a_at) / Fold change /veh TMCC2 (11721928_a_at) / RFU IRGQ (11745062_a_at) / Fold change /veh IRGQ (11745062_a_at) / RFU FAM174B (11720279_a_at) / Fold change /veh FAM174B (11720279_a_at) / RFU TMPRSS4 (11748680_a_at) / Fold change /veh TMPRSS4 (11748680_a_at) / RFU FAM212B (11763350_a_at) / Fold change /veh FAM212B (11763350_a_at) / RFU PLEKHG5 (11743358_a_at) / Fold change /veh PLEKHG5 (11743358_a_at) / RFU ZSCAN30 (11745921_a_at) / Fold change /veh ZSCAN30 (11745921_a_at) / RFU CMKLR1 (11741424_a_at) / Fold change /veh CMKLR1 (11741424_a_at) / RFU LOC101060620 /// MAPK8IP1 (11723275_at) / Fold change /veh LOC101060620 /// MAPK8IP1 (11723275_at) / RFU SPTSSB (11747773_x_at) / Fold change /veh SPTSSB (11747773_x_at) / RFU PRSS12 (11739890_at) / Fold change /veh PRSS12 (11739890_at) / RFU BIN1 (11741810_x_at) / Fold change /veh BIN1 (11741810_x_at) / RFU WNT11 (11732464_a_at) / Fold change /veh WNT11 (11732464_a_at) / RFU C10orf10 (11716521_a_at) / Fold change /veh C10orf10 (11716521_a_at) / RFU C5orf56 (11738089_at) / Fold change /veh C5orf56 (11738089_at) / RFU CYB561 (11721691_x_at) / Fold change /veh CYB561 (11721691_x_at) / RFU ANKRD19P (11752326_a_at) / Fold change /veh ANKRD19P (11752326_a_at) / RFU OR2T12 /// OR2T33 /// OR2T8 (11738714_s_at) / Fold change /veh OR2T12 /// OR2T33 /// OR2T8 (11738714_s_at) / RFU VCAN (11748164_a_at) / Fold change /veh VCAN (11748164_a_at) / RFU JSRP1 (11732532_at) / Fold change /veh JSRP1 (11732532_at) / RFU KRTAP10-11 (11738290_x_at) / Fold change /veh KRTAP10-11 (11738290_x_at) / RFU MYO3A (11730013_a_at) / Fold change /veh MYO3A (11730013_a_at) / RFU EBF3 (11725865_a_at) / Fold change /veh EBF3 (11725865_a_at) / RFU CAMK2N1 (11719241_x_at) / Fold change /veh CAMK2N1 (11719241_x_at) / RFU C5orf56 (11738088_a_at) / Fold change /veh C5orf56 (11738088_a_at) / RFU OLFML3 (11715873_a_at) / Fold change /veh OLFML3 (11715873_a_at) / RFU LOC100653217 /// NTM (11731650_a_at) / Fold change /veh LOC100653217 /// NTM (11731650_a_at) / RFU MAPK11 (11762145_a_at) / Fold change /veh MAPK11 (11762145_a_at) / RFU FIZ1 (11724087_x_at) / Fold change /veh FIZ1 (11724087_x_at) / RFU OASL (11726364_x_at) / Fold change /veh OASL (11726364_x_at) / RFU SOX15 (11748057_x_at) / Fold change /veh SOX15 (11748057_x_at) / RFU CD79A (11719716_a_at) / Fold change /veh CD79A (11719716_a_at) / RFU HIST1H1D (11736915_at) / Fold change /veh HIST1H1D (11736915_at) / RFU CASKIN2 (11723855_a_at) / Fold change /veh CASKIN2 (11723855_a_at) / RFU LOC730098 (11760151_x_at) / Fold change /veh LOC730098 (11760151_x_at) / RFU OR4N2 (11742367_at) / Fold change /veh OR4N2 (11742367_at) / RFU PRRT2 (11749266_a_at) / Fold change /veh PRRT2 (11749266_a_at) / RFU SNX32 (11753110_a_at) / Fold change /veh SNX32 (11753110_a_at) / RFU CDHR5 (11726645_a_at) / Fold change /veh CDHR5 (11726645_a_at) / RFU RCAN1 (11760418_a_at) / Fold change /veh RCAN1 (11760418_a_at) / RFU FAM167A (11723789_a_at) / Fold change /veh FAM167A (11723789_a_at) / RFU FAM26E (11764081_at) / Fold change /veh FAM26E (11764081_at) / RFU ISYNA1 (11749810_s_at) / Fold change /veh ISYNA1 (11749810_s_at) / RFU ACY1 (11761880_at) / Fold change /veh ACY1 (11761880_at) / RFU 11764098_at / Fold change /veh 11764098_at / RFU SAMD14 (11745864_x_at) / Fold change /veh SAMD14 (11745864_x_at) / RFU NPB (11741838_a_at) / Fold change /veh NPB (11741838_a_at) / RFU TMPRSS6 (11731388_a_at) / Fold change /veh TMPRSS6 (11731388_a_at) / RFU KRTAP10-2 (11738614_at) / Fold change /veh KRTAP10-2 (11738614_at) / RFU ARHGAP8 /// PRR5-ARHGAP8 (11727945_x_at) / Fold change /veh ARHGAP8 /// PRR5-ARHGAP8 (11727945_x_at) / RFU KRTAP5-7 /// NADSYN1 (11734609_at) / Fold change /veh KRTAP5-7 /// NADSYN1 (11734609_at) / RFU RASL12 (11751679_a_at) / Fold change /veh RASL12 (11751679_a_at) / RFU CDKN2B (11736163_a_at) / Fold change /veh CDKN2B (11736163_a_at) / RFU PRF1 (11729649_at) / Fold change /veh PRF1 (11729649_at) / RFU, ZNF638 /// ZNF638-IT1 / Fold change vs veh, ZNF638 /// ZNF638-IT1 / RFU, PANK3 / Fold change vs veh, PANK3 / RFU, SH3YL1 / Fold change vs veh, SH3YL1 / RFU, ZEB2 / Fold change vs veh, ZEB2 / RFU, NRIP1 / Fold change vs veh, NRIP1 / RFU, PTTG1IP / Fold change vs veh, PTTG1IP / RFU, CAPN2 / Fold change vs veh, CAPN2 / RFU, MED14 / Fold change vs veh, MED14 / RFU, SNORA58 / Fold change vs veh, SNORA58 / RFU, C1orf63 / Fold change vs veh, C1orf63 / RFU, LRRFIP1 / Fold change vs veh, LRRFIP1 / RFU, NDUFAF7 / Fold change vs veh, NDUFAF7 / RFU, SLC12A2 / Fold change vs veh, SLC12A2 / RFU, IBTK / Fold change vs veh, IBTK / RFU, ESF1 / Fold change vs veh, ESF1 / Fold change vs veh, TMEM50B / RFU, TAOK1 / Fold change vs veh, TAOK1 / RFU, ACBD3 / Fold change vs veh, ACBD3 / RFU, TMA16 / Fold change vs veh, TMA16 / RFU, RWDD3 / Fold change vs veh, RWDD3 / RFU, BCAT1 / Fold change vs veh, BCAT1 / RFU, EDEM3 / Fold change vs veh, EDEM3 / RFU, TMEM33 / Fold change vs veh, TMEM33 / RFU, WDR75 / Fold change vs veh, WDR75 / RFU, AHCTF1 / Fold change vs veh, AHCTF1 / RFU, TFRC / Fold change vs veh, TFRC / RFU, ZDHHC17 / Fold change vs veh, ZDHHC17 / RFU, NOM1 / Fold change vs veh, NOM1 / RFU, ARL8B / Fold change vs veh, ARL8B / RFU, ZBTB11 / Fold change vs veh, ZBTB11 / RFU, TAMM41 / Fold change vs veh, TAMM41 / RFU, KIAA1704 /// LOC100996395 / Fold change vs veh, KIAA1704 /// LOC100996395 / RFU, ING1 / Fold change vs veh, ING1 / RFU, TRMT61B / Fold change vs veh, TRMT61B / RFU, FUBP3 / Fold change vs veh, FUBP3 / RFU, TP53 / Fold change vs veh, TP53 / RFU, TNKS2 / Fold change vs veh, TNKS2 / RFU, ZFP14 / Fold change vs veh, ZFP14 / RFU, ACTR2 / Fold change vs veh, ACTR2 / RFU, PPP3R1 / Fold change vs veh, PPP3R1 / RFU, PIK3R1 / Fold change vs veh, PIK3R1 / RFU, HNRNPA1 / Fold change vs veh, HNRNPA1 / RFU, RNF170 / Fold change vs veh, RNF170 / RFU, ZNF28 / Fold change vs veh, ZNF28 / RFU, RNGTT / Fold change vs veh, RNGTT / RFU, OGT / Fold change vs veh, OGT / RFU, BRD1 / Fold change vs veh, BRD1 / RFU, MARS / Fold change vs veh, MARS / RFU, ZNF655 / Fold change vs veh, ZNF655 / RFU, FAHD1 / Fold change vs veh, FAHD1 / RFU, BDP1 / Fold change vs veh, BDP1 / RFU, LRRCC1 / Fold change vs veh, LRRCC1 / RFU, ARID1A / Fold change vs veh, ARID1A / RFU, ZNF146 / Fold change vs veh, ZNF146 / RFU, ZNF330 / Fold change vs veh, ZNF330 / RFU, GPN3 / Fold change vs veh, GPN3 / RFU, C9orf123 / Fold change vs veh, C9orf123 / RFU, N4BP2L2 / Fold change vs veh, N4BP2L2 / RFU, ARFIP1 / Fold change vs veh, ARFIP1 / RFU, FAM179B / Fold change vs veh, FAM179B / RFU, BCL10 / Fold change vs veh, BCL10 / RFU, UHRF1BP1L / Fold change vs veh, UHRF1BP1L / RFU, BET1 / Fold change vs veh, BET1 / RFU, CNOT2 / Fold change vs veh, CNOT2 / RFU, ZNF268 / Fold change vs veh, ZNF268 / Fold change vs veh, ZNF507 / RFU, DGCR2 / Fold change vs veh, DGCR2 / RFU, WDSUB1 / Fold change vs veh, WDSUB1 / Fold change vs veh, HSP90B1 /// MIR3652 / RFU, ADSS / Fold change vs veh, ADSS / RFU, GK / Fold change vs veh, GK / RFU, ZNF148 / Fold change vs veh, ZNF148 / RFU, TAF9 / Fold change vs veh, TAF9 / RFU, SLC1A5 / Fold change vs veh, SLC1A5 / RFU, SLMO2 / Fold change vs veh, SLMO2 / RFU, ABCC4 / Fold change vs veh, ABCC4 / RFU, LOC101060439 /// RAP1B / Fold change vs veh, LOC101060439 /// RAP1B / RFU, RFX7 / Fold change vs veh, RFX7 / RFU, GTPBP10 / Fold change vs veh, GTPBP10 / RFU, CNEP1R1 / Fold change vs veh, CNEP1R1 / RFU, BIVM-ERCC5 /// ERCC5 / Fold change vs veh, BIVM-ERCC5 /// ERCC5 / RFU, ILF3 / Fold change vs veh, ILF3 / RFU 11762660_at / Fold change /veh 11762660_at / RFU VCAN (11757783_s_at) / Fold change /veh VCAN (11757783_s_at) / RFU DDX43 (11728927_at) / Fold change /veh DDX43 (11728927_at) / RFU KRT8 (11758188_x_at) / Fold change /veh KRT8 (11758188_x_at) / RFU NKD1 (11759106_at) / Fold change /veh NKD1 (11759106_at) / RFU SRD5A1 (11742802_a_at) / Fold change /veh SRD5A1 (11742802_a_at) / RFU TPSAB1 /// TPSB2 (11721975_s_at) / Fold change /veh TPSAB1 /// TPSB2 (11721975_s_at) / RFU GSTM3 (11746129_a_at) / Fold change /veh GSTM3 (11746129_a_at) / RFU IL23R (11737362_x_at) / Fold change /veh IL23R (11737362_x_at) / RFU TMEM51 (11727254_a_at) / Fold change /veh TMEM51 (11727254_a_at) / RFU PIWIL2 (11732686_x_at) / Fold change /veh PIWIL2 (11732686_x_at) / RFU ORM1 (11744905_x_at) / Fold change /veh ORM1 (11744905_x_at) / RFU CCDC152 (11743942_at) / Fold change /veh CCDC152 (11743942_at) / RFU ECM1 (11717891_a_at) / Fold change /veh ECM1 (11717891_a_at) / RFU IL23R (11748794_a_at) / Fold change /veh IL23R (11748794_a_at) / RFU TNFAIP8L3 (11732012_x_at) / Fold change /veh TNFAIP8L3 (11732012_x_at) / RFU MBOAT4 (11741988_at) / Fold change /veh MBOAT4 (11741988_at) / RFU 11764193_at / Fold change /veh 11764193_at / RFU TMEM53 (11763286_at) / Fold change /veh TMEM53 (11763286_at) / RFU MAGEB2 (11727129_at) / Fold change /veh MAGEB2 (11727129_at) / RFU TMEM200A (11744735_a_at) / Fold change /veh TMEM200A (11744735_a_at) / RFU CCDC152 (11751479_a_at) / Fold change /veh CCDC152 (11751479_a_at) / RFU FAM211A (11726209_a_at) / Fold change /veh FAM211A (11726209_a_at) / RFU RGS16 (11746705_a_at) / Fold change /veh RGS16 (11746705_a_at) / RFU VCAN (11755009_s_at) / Fold change /veh VCAN (11755009_s_at) / RFU RHOB (11743442_s_at) / Fold change /veh RHOB (11743442_s_at) / RFU RGS16 (11720943_a_at) / Fold change /veh RGS16 (11720943_a_at) / RFU RGS16 (11720944_at) / Fold change /veh RGS16 (11720944_at) / RFU, VPS4B / Fold change vs veh, VPS4B / RFU, CREB1 / Fold change vs veh, CREB1 / RFU, DNAJC13 / Fold change vs veh, DNAJC13 / RFU, GNAQ / Fold change vs veh, GNAQ / RFU, CDK5R1 / Fold change vs veh, CDK5R1 / RFU, ZRANB3 / Fold change vs veh, ZRANB3 / RFU, CUL4A / Fold change vs veh, CUL4A / RFU, CCNY / Fold change vs veh, CCNY / RFU, UFL1 / Fold change vs veh, UFL1 / RFU, COG3 / Fold change vs veh, COG3 / RFU, DIAPH2 / Fold change vs veh, DIAPH2 / RFU, SKA2 / Fold change vs veh, SKA2 / RFU, AFF3 / Fold change vs veh, AFF3 / RFU, LMF1 / Fold change vs veh, LMF1 / RFU, IPO11 / Fold change vs veh, IPO11 / RFU, DFFB / Fold change vs veh, DFFB / RFU, FOXP1 / Fold change vs veh, FOXP1 / RFU, CARD8 / Fold change vs veh, CARD8 / RFU, STRN3 / Fold change vs veh, STRN3 / RFU, ADK / Fold change vs veh, ADK / RFU, RASSF2 / Fold change vs veh, RASSF2 / RFU, WIPF1 / Fold change vs veh, WIPF1 / RFU, LARP1B / Fold change vs veh, LARP1B / RFU, RASA1 / Fold change vs veh, RASA1 / RFU, RB1 / Fold change vs veh, RB1 / RFU, PPFIA1 / Fold change vs veh, PPFIA1 / RFU, MAT2A / Fold change vs veh, MAT2A / RFU, CCT5 / Fold change vs veh, CCT5 / RFU, WDR92 / Fold change vs veh, WDR92 / RFU, CUX1 / Fold change vs veh, CUX1 / RFU, TTC7A / Fold change vs veh, TTC7A / RFU, TMEM135 / Fold change vs veh, TMEM135 / RFU, DEPTOR / Fold change vs veh, DEPTOR / RFU, CPM / Fold change vs veh, CPM / RFU, DNAJB6 / Fold change vs veh, DNAJB6 / RFU, CACNA2D3 / Fold change vs veh, CACNA2D3 / RFU, DTX4 / Fold change vs veh, DTX4 / RFU, TFCP2 / Fold change vs veh, TFCP2 / RFU, GMCL1 /// GMCL1P1 / Fold change vs veh, GMCL1 /// GMCL1P1 / RFU, AEBP2 / Fold change vs veh, AEBP2 / RFU, SNHG1 /// SNORD22 /// SNORD25 /// SNORD26 /// SNORD27 /// SNORD28 /// SNORD29 /// SNORD31 / Fold change vs veh, SNHG1 /// SNORD22 /// SNORD25 /// SNORD26 /// SNORD27 /// SNORD28 /// SNORD29 /// SNORD31 / Fold change (Aza/veh), C12orf56 (ProbeSet 11735607_a_at) / Fold change (ACY-1035/veh), C12orf56 (ProbeSet 11735607_a_at) / Fold change (Aza/veh), FGFR1OP (ProbeSet 11751329_s_at) / Fold change (ACY-1035/veh), FGFR1OP (ProbeSet 11751329_s_at) / Fold change (Aza/veh), VPS36 (ProbeSet 11739960_a_at) / Fold change (ACY-1035/veh), VPS36 (ProbeSet 11739960_a_at) / RFU SYPL1 (11715823_x_at) / Fold change /veh SYPL1 (11715823_x_at) / RFU IGFBP7 (11715501_s_at) / Fold change /veh IGFBP7 (11715501_s_at) / RFU REEP3 (11722064_at) / Fold change /veh REEP3 (11722064_at) / RFU IGLL1 (11728026_x_at) / Fold change /veh IGLL1 (11728026_x_at): dose or concentration left out as unconfirmed
# Details: ProbeSet 11743882_a_at; LIST D
smiles,measurement,value
Nc1ncn([C@@H]2O[C@H](CO)[C@@H](O)[C@H]2O)c(=O)n1 [azacitidine],"RFU, STRN3",92.89 RFU
